Data published in patent publication US8920814B2, “Bacterial endotoxin for the prevention of metabolic disorders and bacterial infections” (The Governors of the University of Alberta, priority 2007, dated 2014).

Assays:
transition dairy cows [1] = experiment: Plasma anti-LPS immunoglobulins A, G and M of transition cows given oral LPS; format: in vivo, Holstein cows; details: around parturition
Text: (§1) During their final 3 wk prepartum, 32 multiparous Holstein cows were housed in a tie-stall barn with wood shavings for bedding, the number at any given time varied depending on the number of cows at that stage of gestation. Cows were blocked based on their parity, previous milk production as well as their expected day of calving and randomly assigned to one of the four treatment groups (8 cows/group) in a randomized blocked design 2 wk before the expected day of calving until 4 wk postpartum. Cows were offered dry-period and early-lactation diets, formulated according to NRC recommendation (2001) for transition dairy cows.
The four groups of cows were administered on d 14, 11, 7, and 4 before the expected day of parturition as well as on d 1 and 3 after parturition, one of the following treatments: (1) oral delivery of 2 mL of saline (0.15 M NaCl), (2) oral delivery of 2 mL of saline containing lipopolysaccharide (LPS) from Escherichia coli 0111:B4 (Sigma, St. Louis, Mo.), (3) intravenous delivery of 100 mL of saline (0.15 M NaCl), or (4) intravenous delivery of 100 mL of saline containing LPS from E. coli 0111:B4. A 5 mL syringe was used for administration of treatment into the oral cavity. […] Rectal temperature, respiration rate, and rumen contraction was measured from all cows 15 min before as well as 60, 120, 180, 240, 300, and 360 min after administration of treatment. […]
(§2) Blood was collected into 10-ml Vacutainer tubes (Beckton Dickinson and Co., Rutherford, N.J.) containing K3-EDTA, and plasma was prepared by centrifugation within 20 min. Plasma samples were stored at −20° C. until analyzed for concentrations of serum amyloid A (SAA), lipopolysaccharide-binding protein (LBP), haptoglobin, C-reactive protein (CRP), glucose, insulin, non-esterified fatty acids (NEFA), beta-hydroxybutyric acid (BHBA), lactate, cholesterol, cortisol, calcium, copper, iron, zinc as well as anti-LPS immunoglobulin A, G, and M.

transition dairy cows [2] = experiment: Clinical incidence of postpartal metabolic disorders after oral vaccination of transition cows; format: in vivo, Holstein cows; details: for reduction of the incidence of metabolic disorders: vs oral saline
Text: as §1
Diets were mixed and offered as TMR individually once a day at 0600 h. Orts were recorded and discarded before the next feeding each day and the amount of feed was adjusted to ensure a 10% feed residual. Cows were milked twice a day at 0400 and 1500 h, and milk yield was recorded electronically every day for the first 28 days of lactation. All clinical disease and medication were recorded daily during the whole experimental period. The experiment was conducted at the University of Alberta Dairy Research and Technology Center, Edmonton, Canada. All cows were managed and treated in accordance with the guidelines established by the Canadian Council on Animal Care (1993) and all animal-related procedures were approved by the University of Alberta Faculty Animal Policy and Welfare Committee.
(§3) The four groups of cows were administered on d 14, 11, 7, and 4 before the expected day of parturition as well as on d 1 and 3 after parturition, one of the following treatments: (1) oral delivery of 2 mL of saline (0.15 M NaCl), (2) oral delivery of 2 mL of saline containing lipopolysaccharide (LPS) from Escherichia coli 0111:B4 (Sigma, St. Louis, Mo.), (3) intravenous delivery of 100 mL of saline (0.15 M NaCl), or (4) intravenous delivery of 100 mL of saline containing LPS from E. coli 0111:B4. A 5 mL syringe was used for administration of treatment into the oral cavity. The amount of LPS given to cows orally or intravenously (iv) was as follows: (1) on d 14 and 11 before the expected day of parturition 0.01 μg/kg of BW dissolved in 2 mL (oral) or 100 mL (iv) of saline, (2) on d 7 and 4 before the expected day of parturition 0.05 μg/kg of BW dissolved in 2 mL (oral) or 100 mL (iv) of saline, and (3) on d 1 and 3 after parturition 0.1 μg/kg of BW dissolved in 2 mL (oral) or 100 mL (iv) of saline. Cows were given one flat dose of LPS based on the 650 kg average body weight of cows at Dairy Research and Technology Transfer. Rectal temperature, respiration rate, and rumen contraction was measured from all cows 15 min before as well as 60, 120, 180, 240, 300, and 360 min after administration of treatment.

transition dairy cows [3] = experiment: Clinical responses, dry matter intake and milk yield of transition cows given LPS; format: in vivo, Holstein cows; details: oral; whole experimental period
Text: We then investigated how transition cows respond clinically to repeated oral and intravenous exposure to an E. coli antigen (E. coli lipopolysaccharide—(“LPS”)) during the 2 weeks before and 1 week after calving, and to determine the effects of repeated oral or intravenous administration of E. coli LPS on eating behaviour and milk yield during the transition period.
as §1, with “Cows were offered dry-period and early-lactation diets, formulated according to NRC recommendation (2001) for transition dairy cows.” left out
Diets were mixed and offered as TMR individually once a day at 0600 h. Orts were recorded and discarded before the next feeding each day and the amount of feed was adjusted to ensure a 10% feed residual. Cows were milked twice a day at 0400 and 1500 h, and milk yield was recorded electronically every day for the first 28 days of lactation. All clinical disease and medication were recorded daily during the whole experimental period. […]

transition dairy cows [4] = experiment: Plasma metabolites, minerals and acute phase proteins of transition cows given LPS; format: in vivo, Holstein cows; details: oral
Text: as §1, §3
A catheter was introduced into the jugular vein 1 h before the administration of treatment to all cows in the experiment. Blood samples were obtained from the jugular catheter 15 min before as well as at 15, 30, 60, 120, 180, 240, 300, and 360 min after administration of treatment on d 14, 11, 7, and 4 before the expected day of parturition as well as on d 1 and 3 after parturition. Also, 1 single blood sample was obtained during d 10, 17, and 24 after parturition.
as §2

colon tissue = experiment: Ussing chamber permeability of colon tissue to 3H-mannitol and LPS; format: cell-based, feedlot steers; details: for increase of permeability of colon tissue to 3H-mannitol: acidic pH 5.5 and presence of LPS (500 μg/mL), Ussing chamber
Text: FIG. 6 is a graph depicting permeability of colon tissue (obtained from killed feedlot steers) to ^3H-labeled mannitol under different pH values and in the presence (▪) or absence (□) of lipopolysaccharide (LPS) from E. coli B:055 in an Ussing chamber.
FIG. 8 is a graph depicting translocation of LPS across colon tissue (obtained from killed feedlot steers) under different pH values and in the presence (▪) or absence (□) of lipopolysaccharide (LPS) from E. coli B:055 in an Ussing chamber.
(§4) Accordingly, we investigated whether common rumen fluid and colon concentrations of lipopolysaccharide (LPS) would affect the permeability of rumen and colon tissues to mannitol and LPS in Ussing chambers. In addition, this study was designed to answer the question whether acidic conditions similar to those found in the rumen fluid and colon during conditions of sub-acute and acute acidosis would affect the permeability of rumen and colon tissues to mannitol and LPS.
(§5) Mannitol is a monosaccharide with a molecular weight of 182 daltons and normally is not metabolized by mammalian tissues. Mannitol normally goes through mucosal tissues in small amounts and has been used to evaluate the integrity of mucosal barriers. […] Both acidic pH and presence of LPS disrupts mucosal membranes and make them leaky to bacteria and toxic compounds like endotoxin.
(§6) This means that LPS went through the mucosal membranes (rumen and colon tissues) independently of the pH value.

rumen tissue = experiment: Ussing chamber permeability of rumen tissue to 3H-mannitol and LPS; format: cell-based, feedlot steers; details: for increase of permeability of rumen tissue to 3H-mannitol: acidic pH 4.5 and presence of LPS (500 μg/mL), Ussing chamber
Text: FIG. 5 is a graph depicting permeability of rumen tissue (obtained from killed feedlot steers) to ^3H-labeled mannitol under different pH values and in the presence (▪) or absence (□) of lipopolysaccharide (LPS) from E. coli B:055 in an Ussing chamber.
FIG. 7 is a graph depicting translocation of LPS across rumen tissue (obtained from killed feedlot steers) under different pH values and in the presence (▪) or absence (□) of lipopolysaccharide (LPS) from E. coli B:055 in an Ussing chamber.
as §4, §5, §6

[5] = during 6 h after administration, first week after parturition
[6] = listed as lipopolysaccharide (LPS) from Escherichia coli 0:B55

Substance: lipopolysaccharide (LPS) from Escherichia coli 0111:B4 [LPS from E. coli 0111:B4]
- increase of plasma concentration of anti-LPS immunoglobulin M (IgM) (transition dairy cows [1]): several fold
- plasma IgA antibodies against endotoxin vs control cows (transition dairy cows [1]): lower in vaccinated cows compared with the control ones, although the difference did not reach significant level
- plasma anti-endotoxin IgG antibodies vs control cows (transition dairy cows [1]): lower
- clinical record of individual cow (transition dairy cows [2]; oral LPS group, one cow per block): Normal—Calved day 1, Lameness day 44, Mastitis day 71
- reduction of the incidence of metabolic disorders (transition dairy cows [2]; oral, after 30 d of parturition): 66%
- cows affected by metabolic disorders (transition dairy cows [2]; oral, first 30 days after parturition): not affected by any metabolic disorders
- cows of the group affected (lameness and mastitis) (transition dairy cows [2]; oral, more than 30 days after parturition, one cow): 12%
- reduction of the incidence of metabolic disorders (transition dairy cows [2]; oral, within the first 30 d after parturition): 100%
- dry matter intake vs control cows (transition dairy cows [3]): no differences
- plasma glucose concentration vs control cows (transition dairy cows [4]; 2 wk before and 1 wk after calving): did not change and were higher
- plasma insulin vs control cows (transition dairy cows [4]; around parturition): higher
- plasma zinc (transition dairy cows [4]; around parturition): prevented the decline
- plasma copper (transition dairy cows [4]; before and after calving): no changes
- plasma BHBA concentration vs control cows (transition dairy cows [4]; [5]): lower
- plasma NEFA concentration vs control cows (transition dairy cows [4]; [5]): lower
- plasma cholesterol concentration vs control cows (transition dairy cows [4]; during the 6 h after treatment, last day of the vaccination): Higher
- plasma lipopolysaccharide-binding protein (LBP) vs control cows (transition dairy cows [4]; especially first 3 days after calving): higher in control cows than in vaccinated ones
- plasma serum amyloid A (SAA) vs control group (transition dairy cows [4]; experimental period): no significant differences
- plasma cholesterol concentration vs control cows (transition dairy cows [4]; experimental period / first week after parturition): did not change between the two groups
- plasma glucose concentration vs control cows (transition dairy cows [4]; first week after calving, before and after vaccination (FIG. 17)): higher

Substance: lipopolysaccharide (LPS) from E. coli B:055 [LPS from E. coli strain B:055]
- increase of permeability of colon tissue to 3H-mannitol (colon tissue): increase several fold
- increase of permeability of colon tissue to 3H-mannitol (colon tissue; [6]): 5 fold
- effect on permeability of colon tissue to mannitol (colon tissue; pH values between 5.5 and 7.4): did not affect
- increase of permeability of rumen tissue to 3H-mannitol (rumen tissue): increase several fold
- increase of permeability of rumen tissue to 3H-mannitol (rumen tissue; [6]): 4 fold
- effect on permeability of rumen tissue to mannitol (rumen tissue; pH values between 5.5 and 7.4): did not affect
